From patent publication US20230045421A1 (priority 2018, published 2023) come the findings set out here.

The test system of the first assay is HBV rcDNA. Put plainly: HepDE19 assay with bDNA quantitation of HBV rcDNA. It is filed as cell-based, hepatitis B virus. Conditions: HepDE19 assay, inhibition of formation of rcDNA; read-out: DE-19bDNA EC50. In short, it runs like this: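 Compounds, top concentration 25 μM in 8-point duplicate series, were applied to Tet-free HepDE19 cultures for 7 days. Branched-DNA quantitation of HBV rcDNA against untreated wells gave EC50 and EC90 by 4-parameter fit. Viability (CC50) came from ATP luminescence on parallel plates incubated 4 days.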
By EC50 is commonly meant the concentration at which the effect is half-maximal. With `CC(c1cn(C(C)C)c(=O)c2ccccc12)N(C)C(=O)Nc1ccc(F)c(Cl)c1` (single isomer, unassigned) [Compound 187, 3-(3-Chloro-4-fluorophenyl)-1-(1-(2-isopropyl-1-oxo-1,2-dihydroisoquinolin-4-yl)ethyl)-1-methylurea], the EC50 stood at 140 nM.
As to `CC(C)CN(C(=O)Nc1ccc(F)c(Cl)c1)C(C)c1c[nH]c(=O)c2ccccc12` (single isomer, unassigned) [Compound 143, 3-(3-chloro-4-fluorophenyl)-1-isobutyl-1-(1-(1-oxo-1,2-dihydroisoquinolin-4-yl)ethyl)urea], the EC50 came to 850 nM.
With `CC(c1c[nH]c(=O)c2ccccc12)N(CCS(C)(=O)=O)C(=O)Nc1ccc(F)c(Cl)c1` (single isomer, unassigned) [Compound 108, 3-(3-Chloro-4-fluorophenyl)-1-(2-(methylsulfonyl)ethyl)-1-(1-(1-oxo-1,2-dihydroisoquinolin-4-yl)ethyl)urea], the EC50 was 50 nM.
For the compound `CC(c1cn(C(C)C)c(=O)c2ccccc12)N(C)C(=O)Nc1ccc(F)c(Cl)c1` (single isomer, unassigned) [Compound 188, 3-(3-Chloro-4-fluorophenyl)-1-(1-(2-isopropyl-1-oxo-1,2-dihydroisoquinolin-4-yl)ethyl)-1-methylurea], the EC50 came out at 1800 nM.
In the case of `CC(c1c[nH]c(=O)c2ccccc12)N(CC(C)(C)CO)C(=O)Nc1ccc(F)c(Cl)c1` (single isomer, unassigned) [Compound 210, 3-(3-Chloro-4-fluorophenyl)-1-(3-hydroxy-2,2-dimethylpropyl)-1-(1-(1-oxo-1,2-dihydroisoquinolin-4-yl)ethyl)urea], the concentration giving a half-maximal response (EC50) was found to be 100 nM.

Staying with this assay, now noted: HepDE19 assay, inhibition of formation of relaxed circular DNA (rcDNA), bDNA quantitation; read-out: DE-19bDNA EC50.
For the compound `CC(c1c[nH]c(=O)c2c(F)c(F)ccc12)N(C)C(=O)NCc1ccc(F)cc1` (single isomer, unassigned) [Compound 491, 1-(1-(7,8-Difluoro-1-oxo-1,2-dihydroisoquinolin-4-yl)ethyl)-3-(4-fluorobenzyl)-1-methylurea], the EC50 worked out at 21000 nM.
In the case of `CC(c1c[nH]c(=O)c2cc(F)c(F)cc12)N(C)C(=O)Nc1cc(Cl)c(F)c(Cl)c1` (single isomer, unassigned) [Compound 438, 3-(3,5-Dichloro-4-fluorophenyl)-1-(1-(6,7-difluoro-1-oxo-1,2-dihydroisoquinolin-4-yl)ethyl)-1-methylurea], the EC50 was found to be 6500 nM.
On to `CC(c1c[nH]c(=O)c2ccccc12)N(Cc1ccncn1)C(=O)Nc1ccc(F)c(Cl)c1` (single isomer, unassigned) [Compound 322, 3-(3-Chloro-4-fluorophenyl)-1-(1-(1-oxo-1,2-dihydroisoquinolin-4-yl)ethyl)-1-(pyrimidin-4-ylmethyl)urea], for which the EC50 amounted to 350 nM.

Staying with this assay, now noted: Hepatitis B virus, HepDE19, HepDE19 assay, inhibition of formation of rcDNA; read-out: DE-19bDNA EC50.
Turning to `COc1ncc(CN(C)C(=O)Nc2ccc(F)c(C)c2)c2ccccc12` [Compound 3, 3-(4-Fluoro-3-methylphenyl)-1-((1-methoxyisoquinolin-4-yl)methyl)-1-methylurea], the EC50 was 1100 nM.
As for `CCN(C(=O)Nc1ccc(F)c(Cl)c1)C(c1cnc(OC)c2ccccc12)C(C)C` (single isomer, unassigned) [Compound 44, 3-(3-Chloro-4-fluorophenyl)-1-ethyl-1-(1-(1-methoxyisoquinolin-4-yl)-2-methylpropyl)urea], the EC50 is 25000 nM.
Consider `CC(c1c[nH]c(=O)c2ccccc12)N(C[C@H]1CC[C@H](O)CC1)C(=O)Nc1ccc(F)c(Cl)c1` (mixture of isomers) [Compound 221, trans-3-(3-Chloro-4-fluorophenyl)-1-((4-hydroxycyclohexyl)methyl)-1-(1-(1-oxo-1,2-dihydroisoquinolin-4-yl)ethyl)urea], for which the 50% effective concentration (EC50) was found to be 210 nM.

Staying with this assay, now noted: read-out: DE-19bDNA EC50; HepDE19 assay, inhibition of formation of relaxed circular DNA (rcDNA), bDNA quantitation.
As to `CC(c1c[nH]c(=O)c2cc(F)c(F)cc12)N(C)C(=O)Nc1ccccc1F` (single isomer, unassigned) [Compound 421, 1-(1-(6,7-Difluoro-1-oxo-1,2-dihydroisoquinolin-4-yl)ethyl)-3-(2-fluorophenyl)-1-methylurea], the EC50 came to 17000 nM.
